Some results are limits rather than exact numbers.

The results in this text go back to ChEMBL document CHEMBL5291721, “A preclinical secondary pharmacology resource illuminates target-adverse drug reaction associations of marketed drugs” (Nat Commun, 2023).

One assay concerns the target T1, Adenosine receptor A3 (Homo sapiens, UniProt P0DMS8).
T1 sequence (P0DMS8 whole entry): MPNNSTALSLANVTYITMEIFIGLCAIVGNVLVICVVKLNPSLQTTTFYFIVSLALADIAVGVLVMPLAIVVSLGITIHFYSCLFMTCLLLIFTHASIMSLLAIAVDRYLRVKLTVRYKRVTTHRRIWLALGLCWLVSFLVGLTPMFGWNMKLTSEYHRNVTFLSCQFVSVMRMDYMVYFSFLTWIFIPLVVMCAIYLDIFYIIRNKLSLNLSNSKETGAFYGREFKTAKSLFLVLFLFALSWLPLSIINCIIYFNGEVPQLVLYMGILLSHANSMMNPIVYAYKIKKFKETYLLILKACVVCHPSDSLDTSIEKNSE

A further assay has as its target D(1A) dopamine receptor (Homo sapiens, UniProt P21728). In kind it is functional, cell-based.
In assay [1] the target is T2, Prostaglandin G/H synthase 1 (Rattus norvegicus, UniProt Q63921).
T2 sequence (Q63921 whole entry): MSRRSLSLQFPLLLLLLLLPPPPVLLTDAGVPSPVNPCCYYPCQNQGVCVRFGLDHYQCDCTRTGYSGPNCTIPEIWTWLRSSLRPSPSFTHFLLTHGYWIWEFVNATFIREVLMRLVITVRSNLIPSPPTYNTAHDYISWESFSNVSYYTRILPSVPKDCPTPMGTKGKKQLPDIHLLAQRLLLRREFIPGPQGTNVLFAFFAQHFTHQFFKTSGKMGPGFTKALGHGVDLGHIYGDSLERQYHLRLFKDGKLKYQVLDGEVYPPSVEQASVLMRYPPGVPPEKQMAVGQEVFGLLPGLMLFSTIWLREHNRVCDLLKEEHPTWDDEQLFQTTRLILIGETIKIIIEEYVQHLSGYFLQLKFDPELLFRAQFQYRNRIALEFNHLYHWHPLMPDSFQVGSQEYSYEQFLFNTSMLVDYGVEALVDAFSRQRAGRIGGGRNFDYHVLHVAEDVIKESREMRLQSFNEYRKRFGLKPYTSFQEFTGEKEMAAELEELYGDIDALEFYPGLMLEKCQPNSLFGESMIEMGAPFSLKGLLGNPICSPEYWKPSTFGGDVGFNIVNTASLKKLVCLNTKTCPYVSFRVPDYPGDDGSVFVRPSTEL
In kind it is functional.

The target in assay [2] is T3, Alpha-2A adrenergic receptor (Homo sapiens, UniProt P08913).
T3 sequence (P08913 whole entry): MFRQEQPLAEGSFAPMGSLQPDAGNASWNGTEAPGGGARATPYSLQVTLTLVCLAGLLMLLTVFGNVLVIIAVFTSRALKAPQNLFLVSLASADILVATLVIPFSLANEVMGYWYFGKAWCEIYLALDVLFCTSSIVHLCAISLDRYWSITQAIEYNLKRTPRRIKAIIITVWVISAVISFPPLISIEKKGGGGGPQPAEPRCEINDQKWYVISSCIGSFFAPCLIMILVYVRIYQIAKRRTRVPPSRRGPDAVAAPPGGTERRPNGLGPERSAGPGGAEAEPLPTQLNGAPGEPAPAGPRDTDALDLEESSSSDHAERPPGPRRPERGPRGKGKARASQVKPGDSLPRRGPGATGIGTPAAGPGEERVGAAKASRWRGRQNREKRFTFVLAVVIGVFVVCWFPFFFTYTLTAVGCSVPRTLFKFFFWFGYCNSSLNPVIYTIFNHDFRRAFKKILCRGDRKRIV
In kind it is functional, cell-based.

For assay [3], the target named is Voltage-gated inwardly rectifying potassium channel KCNH2 (Homo sapiens, UniProt Q12809). It is filed as functional. The following applies: read-out: AC50.
The target of assay [4] is Gamma-aminobutyric acid receptor subunit alpha-1 (Rattus norvegicus, UniProt P62813). In kind it is functional.
The target of assay [5] is T4, Cholecystokinin receptor type A (Homo sapiens, UniProt P32238).
T4 sequence (P32238 whole entry): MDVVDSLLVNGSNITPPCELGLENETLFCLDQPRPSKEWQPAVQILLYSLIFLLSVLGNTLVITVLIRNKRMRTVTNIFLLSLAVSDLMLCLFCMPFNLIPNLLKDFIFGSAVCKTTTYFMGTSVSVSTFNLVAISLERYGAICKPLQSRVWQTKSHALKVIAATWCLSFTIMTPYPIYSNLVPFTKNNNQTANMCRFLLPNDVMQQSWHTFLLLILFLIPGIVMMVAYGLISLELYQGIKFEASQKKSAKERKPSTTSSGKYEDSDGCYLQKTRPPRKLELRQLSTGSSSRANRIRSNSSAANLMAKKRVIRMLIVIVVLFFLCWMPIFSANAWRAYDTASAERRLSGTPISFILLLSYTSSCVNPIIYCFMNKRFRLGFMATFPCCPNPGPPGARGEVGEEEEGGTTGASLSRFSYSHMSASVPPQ

Assay [6] has as its target 3',5'-cyclic-AMP phosphodiesterase 4D (Homo sapiens, UniProt Q08499). It is filed as functional.
Another assay concerns the target Melanocortin receptor 3 (Homo sapiens, UniProt P41968).
For assay [7], the target named is 5-hydroxytryptamine receptor 2B (Homo sapiens, UniProt P41595). In kind it is functional, cell-based.
For assay [8], the target named is T5, Alpha-2C adrenergic receptor (Homo sapiens, UniProt P18825).
T5 sequence (P18825 whole entry): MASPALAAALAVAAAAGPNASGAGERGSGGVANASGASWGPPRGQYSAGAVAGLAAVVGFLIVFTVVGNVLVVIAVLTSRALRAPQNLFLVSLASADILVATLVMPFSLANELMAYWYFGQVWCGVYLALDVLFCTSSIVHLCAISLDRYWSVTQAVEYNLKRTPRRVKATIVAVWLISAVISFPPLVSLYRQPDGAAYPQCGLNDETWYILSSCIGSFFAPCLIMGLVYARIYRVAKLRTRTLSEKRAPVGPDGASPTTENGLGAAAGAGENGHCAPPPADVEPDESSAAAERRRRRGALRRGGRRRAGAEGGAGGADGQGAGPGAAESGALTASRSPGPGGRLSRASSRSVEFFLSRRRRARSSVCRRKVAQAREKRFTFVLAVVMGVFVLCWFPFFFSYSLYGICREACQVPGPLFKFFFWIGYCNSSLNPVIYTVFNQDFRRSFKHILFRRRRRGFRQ
It is filed as functional.

The target of assay [9] is T3, Alpha-2A adrenergic receptor. In kind it is functional, cell-based. The source holds these as a separate data set.
Another assay has as its target D(3) dopamine receptor (Homo sapiens, UniProt P35462).
Note: assay procedure not described here.

Sequence of 3',5'-cyclic-AMP phosphodiesterase 4D (Q08499 whole entry): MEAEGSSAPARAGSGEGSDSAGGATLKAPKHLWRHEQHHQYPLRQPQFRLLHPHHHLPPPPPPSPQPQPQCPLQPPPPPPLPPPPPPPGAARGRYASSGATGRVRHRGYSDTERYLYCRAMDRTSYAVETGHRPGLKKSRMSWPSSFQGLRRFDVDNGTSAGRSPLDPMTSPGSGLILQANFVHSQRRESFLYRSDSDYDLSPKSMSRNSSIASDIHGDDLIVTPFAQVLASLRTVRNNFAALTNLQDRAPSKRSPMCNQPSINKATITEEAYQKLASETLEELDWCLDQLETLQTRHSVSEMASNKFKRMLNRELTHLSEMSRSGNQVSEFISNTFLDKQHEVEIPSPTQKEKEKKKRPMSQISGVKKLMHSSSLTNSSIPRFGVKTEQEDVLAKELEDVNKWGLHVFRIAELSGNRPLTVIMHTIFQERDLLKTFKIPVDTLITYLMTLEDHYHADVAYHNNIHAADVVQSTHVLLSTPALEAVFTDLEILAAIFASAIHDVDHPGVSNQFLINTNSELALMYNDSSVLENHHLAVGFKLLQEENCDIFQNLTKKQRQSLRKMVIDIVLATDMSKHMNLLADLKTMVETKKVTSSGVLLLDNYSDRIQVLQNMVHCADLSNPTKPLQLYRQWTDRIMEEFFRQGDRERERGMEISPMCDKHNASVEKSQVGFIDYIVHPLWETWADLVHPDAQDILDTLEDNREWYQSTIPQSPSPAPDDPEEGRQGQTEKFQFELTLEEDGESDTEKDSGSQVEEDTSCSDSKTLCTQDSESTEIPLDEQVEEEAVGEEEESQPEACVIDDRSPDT
Sequence of D(1A) dopamine receptor (P21728 whole entry): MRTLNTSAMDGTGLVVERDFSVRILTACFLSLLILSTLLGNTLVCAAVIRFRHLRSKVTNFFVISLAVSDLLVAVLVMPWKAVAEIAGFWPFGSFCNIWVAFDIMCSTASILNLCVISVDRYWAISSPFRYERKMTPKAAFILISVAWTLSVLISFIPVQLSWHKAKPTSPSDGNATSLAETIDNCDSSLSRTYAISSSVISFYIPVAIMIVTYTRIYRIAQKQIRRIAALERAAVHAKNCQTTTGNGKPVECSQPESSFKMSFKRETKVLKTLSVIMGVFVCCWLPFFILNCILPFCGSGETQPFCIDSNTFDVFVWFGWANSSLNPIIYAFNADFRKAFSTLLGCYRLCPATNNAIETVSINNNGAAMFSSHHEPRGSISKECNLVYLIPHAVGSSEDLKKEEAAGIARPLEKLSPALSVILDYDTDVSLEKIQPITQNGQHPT
Sequence of Gamma-aminobutyric acid receptor subunit alpha-1 (P62813 whole entry): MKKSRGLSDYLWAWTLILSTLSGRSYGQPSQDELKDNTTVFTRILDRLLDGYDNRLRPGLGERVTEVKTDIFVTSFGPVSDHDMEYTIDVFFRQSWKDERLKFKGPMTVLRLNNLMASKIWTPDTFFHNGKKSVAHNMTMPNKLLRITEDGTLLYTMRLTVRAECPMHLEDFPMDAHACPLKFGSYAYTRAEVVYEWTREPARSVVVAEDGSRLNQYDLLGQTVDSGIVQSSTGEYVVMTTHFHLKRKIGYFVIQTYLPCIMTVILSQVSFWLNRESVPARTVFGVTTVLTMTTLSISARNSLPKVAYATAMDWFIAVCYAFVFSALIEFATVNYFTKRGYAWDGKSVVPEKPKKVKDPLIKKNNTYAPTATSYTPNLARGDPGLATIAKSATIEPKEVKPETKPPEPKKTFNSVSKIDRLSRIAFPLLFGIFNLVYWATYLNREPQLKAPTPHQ
Sequence of D(3) dopamine receptor (P35462 whole entry): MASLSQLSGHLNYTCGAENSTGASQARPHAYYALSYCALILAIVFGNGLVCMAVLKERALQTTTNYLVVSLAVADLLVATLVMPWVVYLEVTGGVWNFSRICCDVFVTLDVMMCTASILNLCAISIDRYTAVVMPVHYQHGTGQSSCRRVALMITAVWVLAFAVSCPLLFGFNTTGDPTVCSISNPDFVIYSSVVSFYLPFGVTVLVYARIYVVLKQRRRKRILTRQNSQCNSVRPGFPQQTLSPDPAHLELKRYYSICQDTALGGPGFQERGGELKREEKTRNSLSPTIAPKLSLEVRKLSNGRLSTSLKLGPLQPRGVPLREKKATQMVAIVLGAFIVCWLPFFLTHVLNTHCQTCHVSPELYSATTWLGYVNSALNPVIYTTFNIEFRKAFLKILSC
Sequence of Voltage-gated inwardly rectifying potassium channel KCNH2 (Q12809 whole entry): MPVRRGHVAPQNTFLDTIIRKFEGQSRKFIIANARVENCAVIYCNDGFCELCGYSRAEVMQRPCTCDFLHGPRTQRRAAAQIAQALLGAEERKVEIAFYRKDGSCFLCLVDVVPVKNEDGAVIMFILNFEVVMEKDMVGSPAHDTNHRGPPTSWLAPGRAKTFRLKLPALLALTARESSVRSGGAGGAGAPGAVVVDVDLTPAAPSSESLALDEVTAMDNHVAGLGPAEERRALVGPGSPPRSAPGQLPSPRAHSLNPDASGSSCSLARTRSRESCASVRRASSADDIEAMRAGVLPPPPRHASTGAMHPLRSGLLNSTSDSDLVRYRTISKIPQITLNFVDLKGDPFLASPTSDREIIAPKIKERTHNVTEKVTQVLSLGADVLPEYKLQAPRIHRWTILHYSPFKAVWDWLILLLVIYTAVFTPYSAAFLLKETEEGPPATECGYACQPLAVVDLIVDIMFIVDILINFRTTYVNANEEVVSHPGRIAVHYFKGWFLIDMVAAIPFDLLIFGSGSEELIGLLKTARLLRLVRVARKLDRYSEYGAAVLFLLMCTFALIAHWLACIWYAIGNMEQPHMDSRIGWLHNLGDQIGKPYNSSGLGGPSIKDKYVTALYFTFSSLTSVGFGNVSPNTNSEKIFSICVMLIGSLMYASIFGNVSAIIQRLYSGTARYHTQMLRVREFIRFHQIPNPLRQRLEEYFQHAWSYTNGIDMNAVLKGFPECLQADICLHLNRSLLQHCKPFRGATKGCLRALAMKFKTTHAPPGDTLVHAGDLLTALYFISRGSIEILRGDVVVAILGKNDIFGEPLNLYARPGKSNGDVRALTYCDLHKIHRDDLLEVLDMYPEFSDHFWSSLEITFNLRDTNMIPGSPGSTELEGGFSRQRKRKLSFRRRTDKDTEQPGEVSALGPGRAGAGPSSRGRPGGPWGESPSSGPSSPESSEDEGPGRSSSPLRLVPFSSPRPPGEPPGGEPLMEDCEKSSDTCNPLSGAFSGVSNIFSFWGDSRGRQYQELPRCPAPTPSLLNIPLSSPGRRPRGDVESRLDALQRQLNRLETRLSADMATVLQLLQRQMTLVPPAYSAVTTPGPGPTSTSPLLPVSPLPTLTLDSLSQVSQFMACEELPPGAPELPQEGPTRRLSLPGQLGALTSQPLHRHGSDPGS
Sequence of Melanocortin receptor 3 (P41968 whole entry): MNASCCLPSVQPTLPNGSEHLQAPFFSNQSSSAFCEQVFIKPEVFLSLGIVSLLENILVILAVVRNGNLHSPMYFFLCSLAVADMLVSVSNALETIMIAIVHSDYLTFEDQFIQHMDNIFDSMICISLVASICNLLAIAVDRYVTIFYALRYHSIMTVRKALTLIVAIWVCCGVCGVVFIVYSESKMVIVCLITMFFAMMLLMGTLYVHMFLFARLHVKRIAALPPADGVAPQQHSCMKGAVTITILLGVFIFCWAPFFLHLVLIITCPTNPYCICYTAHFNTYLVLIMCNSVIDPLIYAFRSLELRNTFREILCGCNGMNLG
Sequence of 5-hydroxytryptamine receptor 2B (P41595 whole entry): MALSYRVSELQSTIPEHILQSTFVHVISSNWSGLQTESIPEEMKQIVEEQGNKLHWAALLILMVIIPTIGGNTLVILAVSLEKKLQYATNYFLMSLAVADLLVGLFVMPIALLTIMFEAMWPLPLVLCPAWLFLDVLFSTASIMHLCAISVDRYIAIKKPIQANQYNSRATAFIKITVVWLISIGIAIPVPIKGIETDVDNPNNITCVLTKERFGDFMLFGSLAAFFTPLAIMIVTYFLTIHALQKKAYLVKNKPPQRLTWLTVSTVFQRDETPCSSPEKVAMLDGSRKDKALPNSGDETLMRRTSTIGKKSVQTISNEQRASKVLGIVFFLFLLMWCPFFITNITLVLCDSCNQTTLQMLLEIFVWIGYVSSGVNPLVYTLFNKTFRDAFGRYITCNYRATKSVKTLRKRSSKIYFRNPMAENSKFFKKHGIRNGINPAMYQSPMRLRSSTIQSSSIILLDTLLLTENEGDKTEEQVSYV

On to `NC[C@H]1CC[C@H](C(=O)O)CC1` [TRANEXAMIC ACID], for which the concentration at half-maximal activity (AC50) at Adenosine receptor A3 is above 10 µM; on D(1A) dopamine receptor, above 30 µM; in assay [1] it was above 10 µM; in assay [2] it was above 10 µM; in [3], above 30 µM; in assay [4] it was above 10 µM. Further, the concentration at half-maximal activity (AC50) was above 10 µM in assay [5]; above 30 µM in assay [6]; above 10 µM at Melanocortin receptor 3; above 10 µM in assay [7]; above 10 µM in [8]; above 10 µM in assay [9]. The molecule also gave an AC50 at D(3) dopamine receptor above 30 µM.

Consider `NC[C@H]1O[C@H](O[C@H]2[C@H](O)[C@@H](O[C@H]3O[C@H](CO)[C@@H](O)[C@H](N)[C@H]3O)[C@H](N)C[C@@H]2N)[C@H](O)[C@@H](O)[C@@H]1O` [KANAMYCIN], for which the concentration at half-maximal activity (AC50) on Adenosine receptor A3 is above 10 µM; at D(1A) dopamine receptor it was above 30 µM; in assay [1], above 10 µM; in [2], above 10 µM; in [3], above 30 µM; in assay [4], above 10 µM. In addition, the AC50 in assay [5] is above 10 µM; in assay [6], above 30 µM; on Melanocortin receptor 3, above 10 µM; in assay [7] it was above 10 µM; in [8], above 30 µM; in assay [9], above 10 µM. On D(3) dopamine receptor, the AC50 was above 30 µM.

As to `NS(=O)(=O)c1cc2c(cc1Cl)NCNS2(=O)=O` [HYDROCHLOROTHIAZIDE], the AC50 at Adenosine receptor A3 is above 30 µM; at D(1A) dopamine receptor it was above 10 µM; in assay [1], above 30 µM; in assay [2], above 10 µM; in assay [3], above 30 µM; in assay [4], above 10 µM. Also, the half-maximal activity concentration (AC50) in [5] is above 30 µM; in assay [6], above 10 µM; at Melanocortin receptor 3, above 30 µM; in [7], above 10 µM; in assay [8] it was above 10 µM; in assay [9], above 10 µM. Further, on D(3) dopamine receptor, the AC50 is above 10 µM.

Regarding `CC(C)(C(=O)c1cccnc1)c1cccnc1` [METYRAPONE], the AC50 at Adenosine receptor A3 is above 10 µM; at D(1A) dopamine receptor, above 10 µM; in assay [1] it was above 10 µM; in assay [2], above 10 µM; in assay [3], above 30 µM; in assay [4] it was above 10 µM. Moreover, the AC50 in assay [5] was above 10 µM; in assay [6], above 30 µM; at Melanocortin receptor 3, above 10 µM; in assay [7], above 10 µM; in assay [8] it was above 10 µM; in assay [9] it was above 10 µM. Further, at D(3) dopamine receptor, the AC50 was above 30 µM.

Regarding `CC(C(=O)O)c1ccc(C(=O)c2cccs2)cc1` (stereo not given) [SUPROFEN], the concentration at half-maximal activity (AC50) is above 10 µM on Adenosine receptor A3; above 10 µM at D(1A) dopamine receptor; 0.284 µM in [1]; above 10 µM in assay [2]; above 30 µM in assay [3]; above 10 µM in assay [4]. Besides, the AC50 was above 10 µM in assay [5]; above 30 µM in assay [6]; above 10 µM at Melanocortin receptor 3; above 10 µM in assay [7]; above 10 µM in [8]; above 10 µM in assay [9]. On D(3) dopamine receptor, this molecule registered an AC50 above 30 µM.

Regarding `OCc1cc([C@@H](O)CNCCCCCCOCCOCc2c(Cl)cccc2Cl)ccc1O` [VILANTEROL], the AC50 on Adenosine receptor A3 was 29 µM; on D(1A) dopamine receptor, 2.2 µM; in assay [1], above 30 µM; in [2] it was above 30 µM; in assay [4], above 30 µM; in [5], above 30 µM. Besides, the concentration at half-maximal activity (AC50) is 18 µM in [6]; 26 µM on Melanocortin receptor 3; above 30 µM in assay [7]; above 30 µM in assay [8]; above 30 µM in assay [9]; above 30 µM at D(3) dopamine receptor.

In the case of `CN(CCOc1ccc(NS(C)(=O)=O)cc1)CCc1ccc(NS(C)(=O)=O)cc1` [DOFETILIDE], the AC50 at Adenosine receptor A3 is above 30 µM; on D(1A) dopamine receptor, above 10 µM; in assay [1] it was above 30 µM; in assay [2], above 30 µM; in [4] it was above 10 µM; in assay [5] it was above 30 µM. The AC50 in [6] is above 30 µM; at Melanocortin receptor 3 it was above 30 µM; in assay [7] it was above 30 µM; in assay [8] it was above 10 µM; in [9], above 30 µM; on D(3) dopamine receptor, 0.78 µM.

With `COC(=O)N[C@H](C(=O)N1CCC[C@H]1c1nc(-c2ccc(-c3ccc(-c4c[nH]c([C@@H]5CCCN5C(=O)[C@@H](NC(=O)OC)C(C)C)n4)cc3)cc2)c[nH]1)C(C)C`, the AC50 (at Adenosine receptor A3; on D(1A) dopamine receptor; in assay [1]; in assay [2]; in assay [4]; in [5]) was above 30 µM in each case. Moreover, the AC50 (in [6]; at Melanocortin receptor 3; in [7]; in [8]; in [9]; at D(3) dopamine receptor) was above 30 µM each time.

For the molecule `O=C(CCCCCCC(=O)Nc1ccccc1)NO` [VORINOSTAT], the half-maximal activity concentration (AC50) (on Adenosine receptor A3; at D(1A) dopamine receptor; in [1]; in assay [2]; in [4]; in [5]) was above 30 µM in each case. The half-maximal activity concentration (AC50) (in assay [6]; on Melanocortin receptor 3; in assay [7]; in [8]; in assay [9]; at D(3) dopamine receptor) was above 30 µM throughout.

Take `COC(=O)C1=C(C)NC(C)=C(C(=O)OCC(C)C)C1c1ccccc1[N+](=O)[O-]` (stereo not given) [NISOLDIPINE]: the half-maximal activity concentration (AC50) at Adenosine receptor A3 was 0.614 µM; at D(1A) dopamine receptor, above 30 µM; in [1], above 10 µM; in assay [2], above 10 µM; in assay [4], above 10 µM; in [5], above 10 µM. Further, the AC50 in [6] was 11 µM; on Melanocortin receptor 3, above 10 µM; in [7], 17 µM; in assay [8], above 10 µM; in [9], above 10 µM; at D(3) dopamine receptor, 10 µM.
